# Source: article PMC7707621, “Oxidized Juncuenin B Analogues with Increased Antiproliferative Activity on Human Adherent Cell Lines: Semisynthesis and Biological Evaluation” (Journal of Natural Products, 2020)
# Where two headings read alike, the source gives them in different places.
# Experiments:
# [1] = system: HeLa cells; details: cited from earlier work
# [2] = system: MCF-7 cells; assay: MTT antiproliferative assay on MCF-7; assay type: cell-based, human
# Description: (§1) The antiproliferative assays of the products were carried out by a standard MTT method on human breast (MCF-7, T47D), cervical (HeLa, SiHa, C33A), and ovarian (A2780) cancer cells, and NIH/3T3 mouse embryonic fibroblast cell lines. In the first step, the diastereomeric and racemic mixtures 1–11 and the starting compound, juncuenin B, were tested to obtain information about their antiproliferative activity.
# (§2) The antiproliferative activity and tumor selectivity of the compounds were measured by standard MTT assays. Tumor cell lines MCF-7, T47D, HeLa, A2780, and noncancerous NIH/3T3 were provided by European Collection of Authenticated Cell Cultures (ECACC, Salisbury, UK); cell lines SiHa and C33A by LGC Standards GmbH (Wesel, Germany). All chemicals and materials used for the antiproliferative assays were purchased from Sigma Aldrich Ltd. (Budapest, Hungary).
# (§3) Growth-inhibition properties of racemates and pure enantiomer compounds were determined by standard MTT assays on six human malignant gynecological cell lines (MCF-7, T47D, HeLa, SiHa, C33A, A2780). To investigate tumor selectivity, the MTT assay was repeated on mouse embryonic fibroblast cells (NIH/3T3) under the same conditions. All cell lines were maintained in minimal essential medium (MEM) supplemented with 10% fetal bovine serum, 1% nonessential amino acids, and 1% penicillin–streptomycin–amphotericin B mixture, and were stored in humidified air containing 5% CO2 at 37 °C. All cell types were seeded into 96–well plates at a density of 5000 with the exception of C33a, which was seeded at a density of 10 000 and treated by increasing concentrations (0.1–30 μM) of the compounds for 72 h under cell culturing conditions. After the incubation, 5 mg/mL MTT [3-(4,5-dimethylthiazol-2-yl)-2,5-diphenyltetrazolium bromide] solution was added to samples for 4 h and precipitated blue formazan crystals were dissolved in DMSO. Absorbance values of the samples were measured at 545 nm using a microplate reader (Stat Fax-2100, Awareness Technologies Inc., Palm City, FL, USA) and untreated cells were used as control. Normalized sigmoidal dose–response curves were fitted to the determined data and the IC50 values were calculated by GraphPad Prism 5.01 (GraphPad Software, San Diego, CA, USA). Cisplatin (Ebewe Pharma GmbH, Unterach, Austria) was used as a reference agent in the same concentration range.
# [3] = system: SiHa cells; assay: MTT antiproliferative assay on SiHa; assay type: cell-based, human; details: for IC50: MTT, 0.1–30 μM, 72 h, mean ± SEM, read-out: calculated IC50 values, SiHa
# Description: as §1, §2, §3
# [4] = system: C33A cells; assay: MTT antiproliferative assay on C33A; assay type: cell-based, human; details: for IC50: MTT, 0.1–30 μM, 72 h, mean ± SEM, read-out: calculated IC50 values, C33A
# Description: as §1, §2, §3
# [5] = system: NIH/3T3 mouse embryonic fibroblast cells; assay: MTT assay for tumor selectivity on NIH/3T3; assay type: cell-based; details: MTT, 0.1–30 μM, 72 h, mean ± SEM; read-out: calculated IC50 values, NIH/3T3
# Description: as §1, §2, §3
# [6] = system: T47D cells; details: read-out: IC50 value from literature, T47D; cited from earlier work
# [7] = system: A2780 cells; details: read-out: IC50 value from literature, A2780; cited from earlier work
# [8] = system: T47D cells; assay: MTT antiproliferative assay on T47D; assay type: cell-based, human; details: Homo sapiens, T47D, read-out: Growth inhibition (% ± SEM), T47d
# Description: as §1, §2, §3
# [9] = system: HeLa cells; assay: MTT antiproliferative assay on HeLa; assay type: cell-based, human; details: Homo sapiens, HeLa, read-out: Growth inhibition (% ± SEM), HeLa
# Description: as §1, §2, §3
# [10] = system: A2780 cells; assay: MTT antiproliferative assay on A2780; assay type: cell-based, human; details: Homo sapiens, read-out: Growth inhibition (% ± SEM), A2780
# Description: as §1, §2, §3
compound,measurement,setting,value
C=Cc1c(C)c(O)cc2c1-c1ccc(O)c(C)c1CC2 [Juncusol],cytotoxicity on HeLa cells (in words),[1],cytotoxic
"N.N.[Cl][Pt][Cl] [cisplatin, reference compound]",IC50,"[2]; MTT, 0.1–30 μM, 72 h, mean ± SEM, read-out: calculated IC50 values, MCF-7",5.8 µM
same,IC50,[3],7.8 µM
same,IC50,[4],1.8 µM
same,IC50,[5],2.7 µM
same,IC50,[6],9.8 µM
same,IC50,[7],1.3 µM
"C=Cc1c(C)c(O)cc2c1CCc1c-2ccc(O)c1C [juncuenin B, 1,7-dimethyl-8-vinyl-9,10-dihydrophenanthrene-2,6-diol]",inhibition at 10 µM,"[2]; Homo sapiens, MCF7, 10 μM, read-out: Growth inhibition (% ± SEM), MCF-7",22.5 ± 2.02%
same,inhibition at 30 µM,"[2]; Homo sapiens, MCF7, 30 μM, read-out: Growth inhibition (% ± SEM), MCF-7",64.9 ± 2.1%
same,fold stronger activity on MCF-7 than on T47D cells,[2]; MCF-7 versus T47D,approximately 2.5 fold
same,inhibition at 10 µM,[8]; 10 μM,< 10%
same,inhibition at 30 µM,[8]; 30 μM,54.2 ± 2.66%
same,inhibition at 10 µM,[9]; 10 μM,88.8 ± 1.15%
same,inhibition at 30 µM,[9]; 30 μM,93.58 ± 0.41%
same,inhibition at 10 µM,"[3]; Homo sapiens, SiHa, 10 μM, read-out: Growth inhibition (% ± SEM), SiHa",22.7 ± 2.89%
same,inhibition at 30 µM,"[3]; Homo sapiens, SiHa, 30 μM, read-out: Growth inhibition (% ± SEM), SiHa",33.1 ± 1.76%
same,IC50,"[3]; Homo sapiens, SiHa",> 30 µM
same,inhibition at 10 µM,"[4]; Homo sapiens, C-33-A, 10 μM, read-out: Growth inhibition (% ± SEM), C33a",27.5 ± 2.45%
same,inhibition at 30 µM,"[4]; Homo sapiens, C-33-A, 30 μM, read-out: Growth inhibition (% ± SEM), C33a",79.33 ± 0.7%
same,IC50,"[4]; Homo sapiens, C-33-A",12.7 ± 1.7 µM
same,inhibition at 10 µM,"[10]; A2780, 10 μM",61.2 ± 1.46%
same,inhibition at 30 µM,"[10]; A2780, 30 μM",85.91 ± 0.62%
same,IC50,[6],> 30 µM
